Results from patent US11969476B2, “Antibody molecule-drug conjugates and uses thereof” (priority 2020, dated 2024).
In brackets after ≈: the same amount, converted by molar mass. Ends that are not written are not given here.

Assays:
P. aeruginosa BAA-2112 = test system: P. aeruginosa BAA-2112; set-up: key: R = Resistant; S = Suspectible; I = Intermediate; NT = Note Tested; details: strain BAA-2112, isolated from human sputum; cited from earlier work
P. aeruginosa BAA-2109 = test system: P. aeruginosa BAA-2109; set-up: key: R = Resistant; S = Suspectible; I = Intermediate; NT = Note Tested; details: strain BAA-2109, isolated from human sputum; cited from earlier work
P. aeruginosa BAA-2114 = test system: P. aeruginosa BAA-2114; set-up: key: R = Resistant; S = Suspectible; I = Intermediate; NT = Note Tested; details: strain BAA-2114, isolated from human sputum; cited from earlier work
P. aeruginosa BAA-2108 = test system: P. aeruginosa BAA-2108; set-up: key: R = Resistant; S = Suspectible; I = Intermediate; NT = Note Tested; details: strain BAA-2108, isolated from human sputum; cited from earlier work
P. aeruginosa BAA-2110 = test system: P. aeruginosa BAA-2110; set-up: key: R = Resistant; S = Suspectible; I = Intermediate; NT = Note Tested; details: strain BAA-2110, isolated from human sputum; cited from earlier work
P. aeruginosa BAA-2111 = test system: P. aeruginosa BAA-2111; set-up: key: R = Resistant; S = Suspectible; I = Intermediate; NT = Note Tested; details: strain BAA-2111, isolated from human sputum; cited from earlier work
P. aeruginosa BAA-2113 = test system: P. aeruginosa BAA-2113; set-up: key: R = Resistant; S = Suspectible; I = Intermediate; NT = Note Tested; details: strain BAA-2113, isolated from human sputum; cited from earlier work
in vitro = details: human, Cytotox CC50
[1] = Cytotoxicity to mammalian cells; details: human, 293T cells
Sau 29213 = experiment: MIC determination (CLSI, 2-fold serial dilutions); assay type: cell-based, S. Aureus
Experimental: (§1) Assessment of Antimicrobial Activity. […] All plates were placed at 37° C. overnight. After 18 hours the plates were read using a mirrored plate reader and reflected incandescent light. […] Wells at and above the MIC should appear void of growth when read by eye.

Pae 39324 = experiment: MIC determination (CLSI, 2-fold serial dilutions); assay type: cell-based, Pseudomonas aeruginosa
Experimental: as §1

Pae 27853 = experiment: MIC determination (CLSI, 2-fold serial dilutions); assay type: cell-based, Pseudomonas aeruginosa
Experimental: as §1

Eco 25922 = experiment: MIC determination (CLSI, 2-fold serial dilutions); assay type: cell-based, E. coli
Experimental: as §1

[2] = LC-MS; 10% human serum (FIG. 8)
Experimental: Assessment of Serum Stability. […] Twenty μl of each test article was placed in a 2.0 ml round bottom microfuge tube. […] Assay tubes were placed at 37° C. in a rotating rack between time-points. […] Supernatant from each tube was collected and frozen at −20° C. for analysis. Samples were harvested and processed at various time-points up to 6 hours.

293T = experiment: Cytotoxicity to mammalian cells

| Compound | antibiotic resistance phenotype (P. aeruginosa BAA-2112) | antibiotic resistance phenotype (P. aeruginosa BAA-2109) | antibiotic resistance phenotype (P. aeruginosa BAA-2114) | antibiotic resistance phenotype (P. aeruginosa BAA-2108) | antibiotic resistance phenotype (P. aeruginosa BAA-2110) | antibiotic resistance phenotype (P. aeruginosa BAA-2111) | antibiotic resistance phenotype (P. aeruginosa BAA-2113) | further results |
| --- | --- | --- | --- | --- | --- | --- | --- | --- |
| NCC[C@H](O)C(=O)N[C@@H]1C[C@H](N)[C@@H](O[C@H]2O[C@H](CN)[C@@H](O)[C@H](O)[C@H]2O)[C@H](O)[C@H]1O[C@H]1O[C@H](CO)[C@@H](O)[C@H](N)[C@H]1O [Amikacin] | S | S | S | S | S | S | S | – |
| CC1(C)S[C@@H]2[C@H](NC(=O)[C@H](N)c3ccccc3)C(=O)N2[C@H]1C(=O)O [Ampicillin] | R | R | R | R | R | R | R | – |
| CC(=O)OCC1=C(C(=O)O)N2C(=O)[C@@H](NC(=O)Cc3cccs3)[C@H]2SC1 [Cefalotin] | R | R | R | R | – | R | R | – |
| Cc1nnc(SCC2=C(C(=O)O)N3C(=O)[C@@H](NC(=O)Cn4cnnn4)[C@H]3SC2)s1 [Cefazolin] | R | R | R | – | R | R | R | – |
| CO/N=C(\C(=O)N[C@@H]1C(=O)N2C(C(=O)O)=C(COC(C)=O)CS[C@H]12)c1csc(N)n1 [Cefotaxime] | R | R | R | R | R | R | R | – |
| CO[C@@]1(NC(=O)Cc2cccs2)C(=O)N2C(C(=O)O)=C(COC(N)=O)CS[C@@H]21 [Cefoxitin] | R | R | R | R | R | R | R | – |
| CO/N=C(\C(=O)N[C@@H]1C(=O)N2C(C(=O)O)=C(CSc3nc(=O)c(=O)[nH]n3C)CS[C@H]12)c1csc(N)n1 [Ceftriaxone] | R | R | R | – | – | R | R | – |
| CO/N=C(\C(=O)N[C@@H]1C(=O)N2C(C(=O)OC(C)OC(C)=O)=C(COC(N)=O)CS[C@H]12)c1ccco1 (some centres unmarked) [Cefuroxime Axetil] | R | R | R | R | – | R | R | – |
| CO/N=C(\C(=O)N[C@@H]1C(=O)N2C(C(=O)O)=C(COC(N)=O)CS[C@H]12)c1ccco1 [Cefuroxime] | R | R | R | R | – | R | R | – |
| O=C(O)c1cn(C2CC2)c2cc(N3CCNCC3)c(F)cc2c1=O [Ciprofloxacin] | S | S | R | S | S | S | S | – |
| CC[C@H](C)[C@H](NC(=O)[C@H](CCCCN)NC(=O)[C@H](CCC(=O)O)NC(=O)[C@H](CCCCN)NC(=O)[C@H](CO)NC(=O)[C@H](CCCCN)NC(=O)[C@H](CCCNC(=N)N)NC(=O)[C@H](Cc1ccccc1)NC(=O)[C@H](Cc1ccccc1)NC(=O)[C@H](CC(=O)O)NC(=O)CNC(=O)[C@H](CC(C)C)NC(=O)[C@H](CC(C)C)NC(=O)CNC(=O)CNC(=O)CN)C(=O)NCC(=O)N[C@@H](CCCCN)C(=O)N[C@@H](CCC(=O)O)C(=O)N[C@@H](Cc1ccccc1)C(=O)N[C@@H](CCCCN)C(=O)N[C@@H](CCCNC(=N)N)C(=O)N[C@H](C(=O)N[C@H](C(=O)N[C@@H](CCC(N)=O)C(=O)N[C@@H](CCCNC(=N)N)C(=O)N[C@H](C(=O)N[C@@H](CCCCN)C(=O)N[C@@H](CC(=O)O)C(=O)N[C@@H](Cc1ccccc1)C(=O)N[C@@H](CC(C)C)C(=O)N[C@@H](CCCNC(=N)N)C(=O)N[C@@H](CC(N)=O)C(=O)N[C@@H](CC(C)C)C(=O)N[C@H](C(=O)N1CCC[C@H]1C(=O)N[C@@H](CCCNC(=N)N)C(=O)N[C@H](C(=O)N[C@@H](CCC(=O)O)C(=O)N[C@@H](CO)C(=O)O)[C@@H](C)O)C(C)C)[C@@H](C)CC)C(C)C)[C@@H](C)CC [Peptide P265] | – | – | – | – | – | – | – | CC50 (in vitro): 90 µg/mL (≈ 19.3 µM) |
| CN(C)c1cc(NC(=O)CNC(C)(C)C)c(O)c2c1C[C@H]1C[C@H]3[C@H](N(C)C)C(O)=C(C(N)=O)C(=O)[C@@]3(O)C(O)=C1C2=O [Tigecycline] | R | R | R | R | R | R | R | – |
| NC[C@H]1O[C@H](O[C@H]2[C@H](O)[C@@H](O[C@H]3O[C@H](CO)[C@@H](O)[C@H](N)[C@H]3O)[C@H](N)C[C@@H]2N)[C@H](N)C[C@@H]1O [Tobramycin] | S | S | S | – | S | S | S | – |
| Amoxicillin/Clavulanic Acid | R | R | R | R | – | R | R | – |
| GGGGIGKFLKKAKKFGKAFVKILKK [Peptide P261] | – | – | – | – | – | – | – | CC50 [1]: 250 µg/mL |
| GGGGLRKRLRKFRNKIKEKLKKIGQKIQGLLPKLA [Peptide P271] | – | – | – | – | – | – | – | CC50 ([1]; Cytotox CC50, concentration at which 50% cytotoxicity of mammalian cells is observed): 250 µg/mL |
| GGGGRFKRFRKKFKKLFKKLSPVIPLLHLG [Peptide P267] | – | – | – | – | – | – | – | CC50 (in vitro): 70 µg/mL |
| GGGHTASDAAAAAALTAANAAAAAAASMA [Peptide P292] | – | – | – | – | – | – | – | MIC Sau 29213 (Sau 29213): >128 μg,/ml; MIC Pae 39324 (Pae 39324): >128 μg,/ml; MIC Pae 27853 (Pae 27853): >128 μg,/ml; MIC Eco 25922 (Eco 25922): >128 μg,/ml; CC50 [1]: 250 µg/mL |
| GGGKFFRKLKKSVKKRAKEFFKKPRVIGVSIPF [Peptide P297] | – | – | – | – | – | – | – | half-life in the presence of serum [2]: ~20 min; CC50 [1]: 780 µg/mL; cytotoxicity to 293T relative to the MIC (293T): ~200 fold |
| GGGKRFKKFFKKLKNSVKKRAKKFFKKPRVIGVSIPF [Peptide P296] | – | – | – | – | – | – | – | CC50 [1]: 400 µg/mL |
| GGGRGLRRLGRKIAHGVKKYGPTVLRIIKKYG [Peptide P294] | – | – | – | – | – | – | – | CC50 (in vitro): 120 µg/mL |
| Gentamicin | S | S | S | I | I | S | S | – |
| Piperacillin/Tazobactam | S | S | S | – | – | S | S | – |
| Trimethoprim/Sulfamethoxazole | R | R | R | R | R | R | R | – |
